From patent publication US8598183B2, “Solid state forms of a potent HCV inhibitor” (Boehringer Ingelheim International GmbH, priority 2010, dated 2013)

Tests used:
[1] = Powder dissolution of triturated mixtures in capsules in 500 mL pH 6.8 buffer; format: physicochemical; details: for % Release, Average of n = 2 (range) / % Release, average / % Release / % Release, average (range): capsule; for % Release, average: 200 mg drug + Meglumine 100 mg; for % Release: 200 mg drug + Pluronic acid 100 mg, n = 1
Text: One class of solubilizer excipients, basifiers, act by increasing the microenvironment pH and thereby increasing the local solubility of the drug (for a drug containing an acid moiety). Another class of solubilizer excipients, surfactants, also act by increasing the local solubility of the drug. […] For example, an enhancement in dissolution was obtained when surfactants, for example, sodium lauryl sulfate or Vitamin E TPGS, were used in combination with basifiers, for example, L-arginine, meglumine or L-lysine. […] For example, only 1% drug release was obtained when Compound (1) sodium salt crystalline was present. The % drug release was 54% at 60 minutes in the presence of 100 mg Arginine alone and 59% in the presence of Sodium lauryl sulfate alone (Table 2). However, in presence of 100 mg of Arginine along with 100 mg of Sodium lauryl sulfate, the % drug release increased to 93% at 60 minutes (Table 3) indicating enhancement in dissolution when both surfactant and basifier were used in combination.

[2] = Powder dissolution testing in pH 6.8 buffer, USP Type II Paddle apparatus; format: physicochemical; details: 60 minutes, listed as crystalline Compound (1) sodium salt
[3] = Water content at variable humidity (adsorption curve of VTI measurement); format: physicochemical; details: 25° C.
Experimental: Bruker D-8 Advance X-Ray Powder Diffractometer in parallel beam mode with a scintillation detector and using a variable temperature/humidity stage. Humidity adjusted and equilibrated at 25° C., scans from 2-35° 2-theta, 0.05° 2-theta step size, 4 seconds/step At higher humidity (50% RH, and 85% RH) the diffraction lines in the resulting patterns are shifted consistent with lattice expansion to accommodate more water in the lattice. The amount of water at 50% RH based on the adsorption curve of the VTI measurement is 1.7%, and the amount of water at 85% RH is 4.5%. When the sample is exposed to ambient conditions after high humidity the resulting diffraction pattern is again consistent with that of the starting material.

[4] = Storage stability of concentrated supersaturated aqueous solutions; format: physicochemical; details: 10 month storage at room temperature
Experimental: This unique behavior of high solubility at high drug concentrations is most likely attributable to tendency of the drug substance to self-micellize. A CMC value of 41.4 mM (corresponding to 28 mg/mL) is estimated.

[5] = system: HCV infection; assay: Human clinical trials in HCV-infected patients; format: in vivo

In the case of `Cn1c(C2(NC(=O)c3ccc4c(C5CCCC5)c(-c5ncc(Br)cn5)n(C)c4c3)CCC2)nc2ccc(/C=C/C(=O)[O-])cc21.[Na+]` [Compound (1) sodium salt], the “% Release, Average of n = 2 (range)” value ([1]; 200 mg drug + Lysine + VitE TPGS (100 mg + 100 mg), 15 min) is reported as 42 (29-55) %, the “% Release, Average of n = 2 (range)” value ([1]; 200 mg drug + Lysine + VitE TPGS (100 mg + 100 mg), 30 min) is reported as 79 (77-81) % and the “% Release, Average of n = 2 (range)” value ([1]; 200 mg drug + Lysine + VitE TPGS (100 mg + 100 mg), 60 min) is reported as 83 (82-83) %. The “% Release, Average of n = 2 (range)” value ([1]; 200 mg drug + Lysine + VitE TPGS (100 mg + 100 mg), 90 min) was 81 (81-82) %, the “% Release, average” value ([1]; 90 (infinity), n = 2) was 49% and the “% Release, average” value ([1]; 15 min, n = 2) was 47%. For the same compound, the “% Release, average” value ([1]; 30 min, n = 2) was 48%, the “% Release, average” value ([1]; 60 min, n = 2) was 48% and the “% Release, Average of n = 2 (range)” value ([1]; 200 mg drug + Meglumine + SDS (40 mg + 20 mg), 15 min) was 66 (61-71) %. For the same compound, the “% Release, Average of n = 2 (range)” value ([1]; 200 mg drug + Meglumine + SDS (40 mg + 20 mg), 30 min) was 73 (71-75) %, the “% Release, Average of n = 2 (range)” value ([1]; 200 mg drug + Meglumine + SDS (40 mg + 20 mg), 60 min) was 70 (69-71) % and the “% Release, Average of n = 2 (range)” value ([1]; 200 mg drug + Meglumine + SDS (40 mg + 20 mg), 90 min) was 68 (67-69) %. For the same compound, the “% Release, Average of n = 2 (range)” value ([1]; 200 mg drug + Meglumine + SDS (100 mg + 100 mg), 15 min) was 81 (79-83) %, the “% Release, Average of n = 2 (range)” value ([1]; 200 mg drug + Meglumine + SDS (100 mg + 100 mg), 30 min) was 87 (86-88) % and the “% Release, Average of n = 2 (range)” value ([1]; 200 mg drug + Meglumine + SDS (100 mg + 100 mg), 60 min) was 83 (80-87) %. For the same compound, the “% Release, Average of n = 2 (range)” value ([1]; 200 mg drug + Meglumine + SDS (100 mg + 100 mg), 90 min) was 86 (85-87) %, the “% Release, Average of n = 2 (range)” value ([1]; 200 mg drug + Meglumine + VitE TPGS (40 mg + 20 mg), 15 min) was 52 (33-70) % and the “% Release, Average of n = 2 (range)” value ([1]; 200 mg drug + Meglumine + VitE TPGS (40 mg + 20 mg), 30 min) was 73 (73-73) %. For the same compound, the “% Release, Average of n = 2 (range)” value ([1]; 200 mg drug + Meglumine + VitE TPGS (40 mg + 20 mg), 60 min) was 73 (73-74) %, the “% Release, Average of n = 2 (range)” value ([1]; 200 mg drug + Meglumine + VitE TPGS (40 mg + 20 mg), 90 min) was 71 (70-72) % and the “% Release, Average of n = 2 (range)” value ([1]; 200 mg drug + Meglumine + VitE TPGS (100 mg + 100 mg), 15 min) was 81 (81-81) %. For the same compound, the “% Release, Average of n = 2 (range)” value ([1]; 200 mg drug + Meglumine + VitE TPGS (100 mg + 100 mg), 30 min) was 85 (84-86) %, the “% Release, Average of n = 2 (range)” value ([1]; 200 mg drug + Meglumine + VitE TPGS (100 mg + 100 mg), 60 min) was 86 (84-87) % and the “% Release, Average of n = 2 (range)” value ([1]; 200 mg drug + Meglumine + VitE TPGS (100 mg + 100 mg), 90 min) was 82 (80-84) %. For the same compound, the “% Release” value ([1]; 90 (infinity)) was 13%, the “% Release” value ([1]; 15 min) was 3% and the “% Release” value ([1]; 30 min) was 12%. For the same compound, the “% Release” value ([1]; 60 min) was 12%, the “% Release, average (range)” value ([1]; 200 mg drug + SDS 100 mg, 90 (infinity), n = 2) was 49 (45-53) % and the “% Release, average (range)” value ([1]; 200 mg drug + SDS 100 mg, 15 min, n = 2) was 57 (56-57) %. For the same compound, the “% Release, average (range)” value ([1]; 200 mg drug + SDS 100 mg, 30 min, n = 2) was 61 (60-63) %, the “% Release, average (range)” value ([1]; 200 mg drug + SDS 100 mg, 60 min, n = 2, listed as Compound (1) Na Salt) was 59 (58-60) % and the “% Release, average (range)” value ([1]; 200 mg drug + SDS 100 mg, 60 min, n = 2, listed as Compound (1) sodium salt crystalline) was 59%. For the same compound, the “% Release, average (range)” value ([1]; 200 mg drug + Tris 100 mg, 90 (infinity), n = 3) was 41 (33-46) %, the “% Release, average (range)” value ([1]; 200 mg drug + Tris 100 mg, 15 min, n = 3) was 40 (34-43) % and the “% Release, average (range)” value ([1]; 200 mg drug + Tris 100 mg, 60 min, n = 3) was 44 (35-48) %. The “% Release, average (range)” value ([1]; 200 mg drug + Vit E TPGS 100 mg, 90 (infinity), n = 2) was 27 (27-27) %, the “% Release, average (range)” value ([1]; 200 mg drug + Vit E TPGS 100 mg, 15 min, n = 2) was 24 (24-24) % and the “% Release, average (range)” value ([1]; 200 mg drug + Vit E TPGS 100 mg, 30 min, n = 2) was 27 (27-27) %. For the same compound, the “% Release, average (range)” value ([1]; 200 mg drug + Vit E TPGS 100 mg, 60 min, n = 2) was 27 (27-27) %, the “% Release, average (range)” value ([1]; Drug alone 200 mg, 90 (infinity), n = 2) was 1 (1-2) % and the “% Release, average (range)” value ([1]; Drug alone 200 mg, 15 min, n = 2) was 1 (1-1) %. For the same compound, the “% Release, average (range)” value ([1]; Drug alone 200 mg, 30 min, n = 2) was 1 (1-1) %, the “% Release, average (range)” value ([1]; Drug alone 200 mg, 60 min, n = 2) was 1 (1-2) % and the “% drug release” value ([1]; drug alone, no basifier or surfactant, time not stated) was 1%. The “% dissolved (kinetic dissolution)” value [2] was less than 5%, the amount of water ([3]; 50% RH) was 1.7% and the amount of water ([3]; 85% RH) was 4.5%. For the same compound, the “precipitation of highly concentrated supersaturated solutions” value [4] was “no precipitation observed” and the “effectiveness in treating HCV-infected patients” value [5] was “demonstrated effectiveness”.
